Results taken from PubChem BioAssay AID1259407 (Chemical Carcinogenesis Research Information System (CCRIS), 2018).
Activity calls are given as the source filed them. No rule for the calls is given here.

Test system: CCRIS mutagenicity, Ames/micronucleus/aberration tests
Experiment: CCRIS mutagenicity studies
[1] = Test System: AMES SALMONELLA TYPHIMURIUM, Strain/Indicator: TA98, Metabolic Activation: NONE, Method: STANDARD PLATE
[2] = Test System: AMES SALMONELLA TYPHIMURIUM, Strain/Indicator: TA98, Metabolic Activation: RAT, LIVER, S-9, AROCLOR 1254, Method: STANDARD PLATE
[3] = Test System: AMES SALMONELLA TYPHIMURIUM, Strain/Indicator: TA100, Metabolic Activation: NONE, Method: STANDARD PLATE
[4] = Test System: AMES SALMONELLA TYPHIMURIUM, Strain/Indicator: TA100, Metabolic Activation: RAT, LIVER, S-9, AROCLOR 1254, Method: STANDARD PLATE
[5] = Test System: AMES SALMONELLA TYPHIMURIUM, Strain/Indicator: TA1535, Metabolic Activation: NONE, Method: STANDARD PLATE
[6] = Test System: AMES SALMONELLA TYPHIMURIUM, Strain/Indicator: TA1537, Metabolic Activation: NONE, Method: STANDARD PLATE
[7] = Test System: AMES SALMONELLA TYPHIMURIUM, Strain/Indicator: TA1537, Metabolic Activation: RAT, LIVER, S-9, AROCLOR 1254, Method: STANDARD PLATE
[8] = Test System: AMES SALMONELLA TYPHIMURIUM, Strain/Indicator: TA1538, Metabolic Activation: RAT, LIVER, S-9, AROCLOR 1254, Method: STANDARD PLATE
[9] = Test System: MOUSE LYMPHOMA, Strain/Indicator: L5178Y (TK+/TK-), Metabolic Activation: NONE, Method: SUSPENSION/PLATE
[10] = Test System: MOUSE LYMPHOMA, Strain/Indicator: L5178Y (TK+/TK-), Metabolic Activation: RAT, LIVER, S-9, AROCLOR 1254, Method: SUSPENSION/PLATE
[11] = Test System: AMES SALMONELLA TYPHIMURIUM, Strain/Indicator: TA98, Metabolic Activation: RAT, LIVER, S-9, PHENOBARBITAL, Method: STANDARD PLATE

Measured: mutagenic call

C=CCc1ccc(O)cc1
inactive: Test System: AMES SALMONELLA TYPHIMURIUM, Strain/Indicator: TA98, Metabolic Activation: HAMSTER, LIVER, S-9, AROCLOR 1254, Method: STANDARD PLATE inactive; negative | [1] inactive; negative | [2] inactive; negative | Test System: AMES SALMONELLA TYPHIMURIUM, Strain/Indicator: TA100, Metabolic Activation: HAMSTER, LIVER, S-9, AROCLOR 1254, Method: STANDARD PLATE inactive; negative | [3] inactive; negative | [4] inactive; negative | Test System: AMES SALMONELLA TYPHIMURIUM, Strain/Indicator: TA1535, Metabolic Activation: HAMSTER, LIVER, S-9, AROCLOR 1254, Method: STANDARD PLATE inactive; negative | [5] inactive; negative | Test System: AMES SALMONELLA TYPHIMURIUM, Strain/Indicator: TA1535, Metabolic Activation: RAT, LIVER, S-9, AROCLOR 1254, Method: STANDARD PLATE inactive; negative | Test System: AMES SALMONELLA TYPHIMURIUM, Strain/Indicator: TA1537, Metabolic Activation: HAMSTER, LIVER, S-9, AROCLOR 1254, Method: STANDARD PLATE inactive; negative | [6] inactive; negative | [7] inactive; negative | Test System: AMES SALMONELLA TYPHIMURIUM, Strain/Indicator: TA1538, Metabolic Activation: HAMSTER, LIVER, S-9, AROCLOR 1254, Method: STANDARD PLATE inactive; negative | Test System: AMES SALMONELLA TYPHIMURIUM, Strain/Indicator: TA1538, Metabolic Activation: NONE, Method: STANDARD PLATE inactive; negative | [8] inactive; negative | [9] inactive; negative. reevaluation of results: negative | [10] inactive; negative. reevaluation of results: negative

[Pb]
inactive: [1] inactive; negative | [11] inactive; negative | Test System: AMES SALMONELLA TYPHIMURIUM, Strain/Indicator: TA102, Metabolic Activation: RAT, LIVER, S-9, PHENOBARBITAL, Method: STANDARD PLATE inactive; negative | [5] inactive; negative | Test System: AMES SALMONELLA TYPHIMURIUM, Strain/Indicator: TA1535, Metabolic Activation: RAT, LIVER, S-9, PHENOBARBITAL, Method: STANDARD PLATE inactive; negative | [6] inactive; negative | Test System: AMES SALMONELLA TYPHIMURIUM, Strain/Indicator: TA1537, Metabolic Activation: RAT, LIVER, S-9, PHENOBARBITAL, Method: STANDARD PLATE inactive; negative
active: End Point: IN VIVO MICRONUCLEUS, Test System: PERIPHERAL BLOOD LYMPHOCYTES, Species: HUMAN, Strain/Sex: MALE, Route: PROBABLY INHALATION, Method: 72 HR CONTINUOUS TREATMENT active; positive | Test System: AMES SALMONELLA TYPHIMURIUM, Strain/Indicator: TA102, Metabolic Activation: NONE, Method: STANDARD PLATE active; positive

COc1cc2c(c3oc4cccc(O)c4c(=O)c13)[C@@H]1C=CO[C@@H]1O2
active: End Point: IN VITRO MICRONUCLEUS, Test System: AHH-1 CELLS, Metabolic Activation: NONE active; positive | End Point: IN VITRO MICRONUCLEUS, Test System: MCL-5 CELLS, Metabolic Activation: NONE active; positive | Test System: AMES SALMONELLA TYPHIMURIUM, Strain/Indicator: TA98, Metabolic Activation: RAT, LIVER, MICROSOMES, PHENOBARBITAL, Method: STANDARD PLATE active; positive | [2] active; positive | Test System: AMES SALMONELLA TYPHIMURIUM, Strain/Indicator: TA98, Metabolic Activation: RAT, LIVER, S-9, KC500 OR PHENOBARBITAL, Method: LIQUID SUSPENSION active; positive | Test System: AMES SALMONELLA TYPHIMURIUM, Strain/Indicator: TA100, Metabolic Activation: NONE, Method: PREINCUBATION active; positive | Test System: AMES SALMONELLA TYPHIMURIUM, Strain/Indicator: TA100, Metabolic Activation: R,L,S-9, PHENOBARBITAL, Method: STANDARD PLATE active; positive | Test System: AMES SALMONELLA TYPHIMURIUM, Strain/Indicator: TA100, Metabolic Activation: RAT, LIVER, MICROSOMES, PHENOBARBITAL, Method: STANDARD PLATE active; positive | [4] active; positive | Test System: AMES SALMONELLA TYPHIMURIUM, Strain/Indicator: TA100, Metabolic Activation: RAT, LIVER, S-9, KC500 OR PHENOBARBITAL, Method: LIQUID SUSPENSION active; positive | Test System: AMES SALMONELLA TYPHIMURIUM, Strain/Indicator: TA100, Metabolic Activation: RAT, LIVER, S-9, PHENOBARBITAL, Method: PREINCUBATION active; positive | Test System: AMES SALMONELLA TYPHIMURIUM, Strain/Indicator: TA100, Metabolic Activation: RAT, LIVER, S-9, PHENOBARBITAL, Method: STANDARD PLATE active; positive | [8] active; positive | Test System: UDS HUMAN CELLS, Strain/Indicator: THY INCORP (NON-S-PHASE), Metabolic Activation: RAT, LIVER, S-9, PHENOBARBITAL, Method: LIQUID SCINTILLATION COUNTING active; positive | Test System: UDS HUMAN FIBROBLASTS, Strain/Indicator: THY INCORP (NON-S-PHASE), Metabolic Activation: MOUSE, LIVER, S-9, Method: AUTORADIOGRAPHY active; positive
inactive: Test System: AMES SALMONELLA TYPHIMURIUM, Strain/Indicator: TA98, Metabolic Activation: R,L,S-9, PHENOBARBITAL, Method: STANDARD PLATE inactive; negative | [11] inactive; negative

CC1=CC(O)=NS(=O)(=O)O1
inactive: End Point: In vivo micronucleus, Test System: Peripheral blood normochromatic erythrocytes, Species: Mouse, Strain/Sex: FVB.N/TgN (v-Ha-ras) Tg.AC hemizygous/Female, Route: Oral inactive; negative | End Point: In vivo micronucleus, Test System: Peripheral blood normochromatic erythrocytes, Species: Mouse, Strain/Sex: FVB.N/TgN (v-Ha-ras) Tg.AC hemizygous/Male, Route: Oral inactive; negative | End Point: In vivo micronucleus, Test System: Peripheral blood normochromatic erythrocytes, Species: Mouse, Strain/Sex: p53 Haploinsufficient/ Female, Route: Oral inactive; negative | [9] inactive; negative. reevaluation of results: negative | [10] inactive; negative. reevaluation of results: negative
active: End Point: In vivo micronucleus, Test System: Peripheral blood normochromatic erythrocytes, Species: Mouse, Strain/Sex: p53 Haploinsufficient/Male, Route: Oral active; positive

Cc1cc(O)c2c(c1)C(=O)c1c(c(O)cc(O)c1-c1c(O)cc(O)c3c1C(=O)c1cc(C)cc(O)c1C3=O)C2=O
inactive: [1] inactive; negative | [2] inactive; negative | [3] inactive; negative | [4] inactive; negative | [6] inactive; negative | [7] inactive; negative
